Measured values reported in ChEMBL document CHEMBL5625174, “Are inhibitors of histone deacetylase 8 (HDAC8) effective in hematological cancers especially acute myeloid leukemia (AML) and acute lymphoblastic leukemia (ALL)?” (Eur J Med Chem, 2023).
One block for each compound: values may come before it. Square brackets hold non-standard residues; d marks the D form. Peptide text beside a SMILES is read from it. * marks the point of attachment. Asu = N[C@@H](CCCCCC(=O)O)C(=O)O; β3hL = CC(C)C[C@H](N)CC(=O)O; NHOH = ON*

Key:
Histone deacetylase 8 [1] = molecular target: T1, Histone deacetylase 8 (Homo sapiens, UniProt Q9BY41); assay: Inhibition of human recombinant HDAC8 using fluorogenic HDAC substrate class 2A preincubated for 30 mins followed by substrate addition and measured after 15 mins by fluorogenic assay
T1 sequence (Q9BY41 whole entry): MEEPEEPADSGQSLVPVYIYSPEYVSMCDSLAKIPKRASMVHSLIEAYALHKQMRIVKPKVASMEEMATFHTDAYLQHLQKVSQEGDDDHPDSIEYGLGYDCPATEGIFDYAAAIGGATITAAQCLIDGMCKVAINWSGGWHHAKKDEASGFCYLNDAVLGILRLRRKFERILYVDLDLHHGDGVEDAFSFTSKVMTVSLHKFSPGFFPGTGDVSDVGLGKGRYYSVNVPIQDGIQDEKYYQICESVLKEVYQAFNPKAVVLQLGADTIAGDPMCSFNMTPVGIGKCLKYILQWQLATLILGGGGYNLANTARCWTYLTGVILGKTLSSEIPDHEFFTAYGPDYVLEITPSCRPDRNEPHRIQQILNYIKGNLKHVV

Jurkat E6.1 [2] = assay: Cytotoxicity against human Jurkat E6.1 cells assessed as reduction in cell viability incubated for 72 hrs by MTT assay; assay type: functional, cell-based; conditions: Jurkat E6.1, 72 h
[3] = Inhibition of HDAC6 (unknown origin) assessed as release of fluorogenic AMC pre-incubated for 15 mins followed by addition of trypsin and substrate measured after 60 mins microplate reader analysis; set-up: species or system Homo sapiens
Jurkat [4] = assay: cells; assay type: functional; conditions: Homo sapiens
Description: Growth inhibition of human Jurkat cells

Jurkat [5] = assay: Antiproliferative activity against human Jurkat cells assessed as cell growth inhibition measured after 72 hrs by CCK-8 assay; assay type: functional
HH = assay: Antiproliferative activity against human HH cells assessed as cell growth inhibition measured after 72 hrs by CCK-8 assay; assay type: functional
MT4 = assay: Cytotoxicity against human MT4 cells assessed as inhibition of cell growth incubated for 72 hrs by CCK-8 assay; assay type: functional
HuT78 = assay: Anti-proliferative activity against human HuT78 cells assessed as growth inhibition incubated for 72 hrs by alamar blue staining based fluorometric assay; assay type: functional
[6] = molecular target: T2, Histone deacetylase 8 (Homo sapiens) (UniProt Q9BY41); assay: Inhibition of His-tagged recombinant HDAC8 (unknown origin) at 10 uM using Boc-Lys(triflouroacetyl)-AMC as fluorogenic substrate pre-incubated for 30 mins followed by substrate addition and measured after 30 mins by fluorescence based analysis relative to control; conditions: time 60.0 min
T2 sequence (whole entry): T1 sequence (Q9BY41 whole entry)

Histone deacetylase 8 [7] = molecular target: T1, Histone deacetylase 8; assay: Inhibition of human recombinant HDAC8 using AMC-K(Ac)GL as substrate by fluorescence based assay
Histone deacetylase 8 [8] = molecular target: T1, Histone deacetylase 8; assay: Inhibition of HDAC8 (unknown origin)
[9] = molecular target: Macrophage metalloelastase (Homo sapiens, UniProt P39900); assay: Inhibition of MMP-12 (unknown origin)
Histone deacetylase = assay: Inhibition of HDAC (unknown origin) using Fluoro-Substrate Peptide as substrate by fluorescence assay; assay type: protein assay, Homo sapiens
Histone deacetylase 8 [10] = molecular target: T1, Histone deacetylase 8; assay: Inhibition of HDAC8 (unknown origin) using as Fluor-de-lys substrate by fluorescence based analysis
Neutrophil collagenase = Neutrophil collagenase (Homo sapiens, UniProt P22894); assay: Inhibition of MMP-8 (unknown origin)
[11] = molecular target: 72 kDa type IV collagenase (Homo sapiens, UniProt P08253); assay: Inhibition of MMP-2 (unknown origin)
[12] = molecular target: Matrix metalloproteinase-9 (Homo sapiens, UniProt P14780); assay: Inhibition of MMP-9 (unknown origin)
[13] = molecular target: Matrix metalloproteinase-14 (Homo sapiens, UniProt P50281); assay: Inhibition of MMP-14 (unknown origin)
Histone deacetylase 8 [14] = molecular target: T1, Histone deacetylase 8; assay: Inhibition of HDAC8 (unknown origin) by fluorescence based assay
U-937 = assay: Cytotoxicity against human U-937 cells assessed as reduction in cell viability; assay type: functional, cell-based
Jurkat E6.1 [15] = assay: Cytotoxicity against human Jurkat E6.1 cells assessed as reduction in cell viability; assay type: functional, cell-based
MOLT-4 = assay: Cytotoxicity against human MOLT-4 cells assessed as reduction in cell viability; assay type: functional, cell-based

Neutrophil collagenase, sequence (P22894 whole entry): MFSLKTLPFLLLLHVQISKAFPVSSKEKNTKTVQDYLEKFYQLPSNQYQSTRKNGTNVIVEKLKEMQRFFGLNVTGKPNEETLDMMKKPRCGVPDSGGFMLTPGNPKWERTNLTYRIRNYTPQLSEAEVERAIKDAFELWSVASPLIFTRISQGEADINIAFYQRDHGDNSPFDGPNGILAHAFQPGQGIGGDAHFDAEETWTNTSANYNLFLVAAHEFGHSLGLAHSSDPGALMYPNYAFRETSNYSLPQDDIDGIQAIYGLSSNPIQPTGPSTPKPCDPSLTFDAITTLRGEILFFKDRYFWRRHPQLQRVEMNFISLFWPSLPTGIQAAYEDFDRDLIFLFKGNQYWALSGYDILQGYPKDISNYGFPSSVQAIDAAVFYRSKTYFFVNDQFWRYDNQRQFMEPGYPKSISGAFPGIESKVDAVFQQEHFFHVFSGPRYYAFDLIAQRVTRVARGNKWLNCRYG
Matrix metalloproteinase-9, sequence (P14780 whole entry): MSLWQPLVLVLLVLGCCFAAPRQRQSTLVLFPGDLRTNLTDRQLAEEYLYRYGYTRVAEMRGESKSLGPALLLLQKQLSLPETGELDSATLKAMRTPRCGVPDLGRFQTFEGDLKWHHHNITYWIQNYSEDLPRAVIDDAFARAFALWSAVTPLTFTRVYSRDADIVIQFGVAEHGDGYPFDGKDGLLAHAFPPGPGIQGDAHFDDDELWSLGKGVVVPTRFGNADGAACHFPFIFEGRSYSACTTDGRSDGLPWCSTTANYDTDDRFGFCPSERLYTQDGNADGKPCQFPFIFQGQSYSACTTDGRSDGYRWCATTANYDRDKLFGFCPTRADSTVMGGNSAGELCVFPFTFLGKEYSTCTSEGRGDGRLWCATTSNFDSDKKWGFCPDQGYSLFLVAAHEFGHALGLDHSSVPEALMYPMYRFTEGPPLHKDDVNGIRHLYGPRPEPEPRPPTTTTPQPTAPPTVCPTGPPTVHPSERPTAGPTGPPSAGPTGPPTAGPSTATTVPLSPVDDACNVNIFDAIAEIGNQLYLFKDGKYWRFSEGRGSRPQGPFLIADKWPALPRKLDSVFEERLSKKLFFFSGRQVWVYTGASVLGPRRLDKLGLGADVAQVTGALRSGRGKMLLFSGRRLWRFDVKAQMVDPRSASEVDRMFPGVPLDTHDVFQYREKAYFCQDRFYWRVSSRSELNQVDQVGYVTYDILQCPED
72 kDa type IV collagenase, sequence (P08253 whole entry): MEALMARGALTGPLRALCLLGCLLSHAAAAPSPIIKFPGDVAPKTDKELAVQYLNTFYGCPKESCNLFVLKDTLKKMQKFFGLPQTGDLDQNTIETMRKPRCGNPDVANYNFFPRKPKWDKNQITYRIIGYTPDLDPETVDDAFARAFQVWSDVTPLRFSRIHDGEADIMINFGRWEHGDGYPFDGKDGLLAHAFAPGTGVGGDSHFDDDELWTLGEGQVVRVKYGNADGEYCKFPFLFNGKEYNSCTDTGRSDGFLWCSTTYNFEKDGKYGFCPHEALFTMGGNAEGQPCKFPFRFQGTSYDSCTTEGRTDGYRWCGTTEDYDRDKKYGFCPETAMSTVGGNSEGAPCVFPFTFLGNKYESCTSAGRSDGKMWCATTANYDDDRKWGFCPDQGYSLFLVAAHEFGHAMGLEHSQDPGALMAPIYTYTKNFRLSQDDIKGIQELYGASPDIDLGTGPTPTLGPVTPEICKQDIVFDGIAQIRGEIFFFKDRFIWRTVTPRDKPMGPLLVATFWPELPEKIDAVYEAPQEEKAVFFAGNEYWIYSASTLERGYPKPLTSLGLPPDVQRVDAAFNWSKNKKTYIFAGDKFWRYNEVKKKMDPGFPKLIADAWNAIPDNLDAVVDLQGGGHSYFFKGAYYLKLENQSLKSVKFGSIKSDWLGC
Macrophage metalloelastase, sequence (P39900 whole entry): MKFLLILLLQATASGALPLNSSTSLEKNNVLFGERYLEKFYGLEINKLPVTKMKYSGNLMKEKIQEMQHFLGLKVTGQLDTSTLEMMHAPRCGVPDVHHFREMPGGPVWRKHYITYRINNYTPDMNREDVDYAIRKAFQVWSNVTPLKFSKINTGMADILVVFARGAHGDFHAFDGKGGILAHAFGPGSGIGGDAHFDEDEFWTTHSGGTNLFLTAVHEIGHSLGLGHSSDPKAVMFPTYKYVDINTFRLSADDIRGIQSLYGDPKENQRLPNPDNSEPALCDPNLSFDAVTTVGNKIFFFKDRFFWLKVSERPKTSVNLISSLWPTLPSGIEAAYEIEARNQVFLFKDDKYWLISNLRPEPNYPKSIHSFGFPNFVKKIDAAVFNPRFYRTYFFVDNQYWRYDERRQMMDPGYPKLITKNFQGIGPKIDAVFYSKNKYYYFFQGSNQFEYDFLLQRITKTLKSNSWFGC

SMILES: CSCC[C@H]1NCC(=O)NC1=O
IC50 (Histone deacetylase 8 [1]): 0.0797 µM

SMILES: CCCCCNC(=O)[C@H](CCC(=O)NO)NC(=O)Cc1ccc(Cl)cc1Cl
IC50 (Jurkat E6.1 [2]): < 50 µM

SMILES: COc1ccc(Cn2ccc3ccc(C(=O)NO)cc32)cc1
IC50 [3]: 2.9 µM
GI50 (Jurkat [4]): 2.4 µM

SMILES: CCCCNC(=O)[C@H](CCC(=O)NO)NC(=O)Cc1ccc(Cl)cc1
IC50 (Jurkat E6.1 [2]): < 50 µM

SMILES: CCCCCNC(=O)[C@H](CCC(=O)NO)NC(=O)Cc1ccccc1
IC50 (Jurkat E6.1 [2]): < 50 µM

SMILES: O=C(NO)c1cccc(-c2nc(CSc3ccccc3)no2)c1
IC50 (Histone deacetylase 8 [7]): 0.12 µM

SMILES: O=C1CN[C@H](Cc2cc3ccccc3[nH]2)C(=O)N1
IC50 (Histone deacetylase 8 [1]): 0.0511 µM

SMILES: O=C(NO)c1cccc(-c2csc(CSc3ccccc3)n2)c1
GI50 (Jurkat [4]): 2 µM

SMILES: N[C@H](Cc1cccc(Cl)c1)C(=O)N1CCN(C(=O)c2cc(F)ccc2F)CC1
IC50 [3]: > 30 µM

SMILES: N[C@H](Cc1ccc(Cl)cc1Cl)C(=O)N1Cc2ccccc2C1
IC50 [3]: > 30 µM

SMILES: CCCCCCNC(=O)[C@H](CCC(=O)NO)NC(=O)Cc1ccccc1
IC50 (Jurkat E6.1 [2]): < 50 µM

SMILES: COc1ccc(-c2cccc(-c3cc(OC)c(OC)c(OC)c3)n2)cc1/C=C/C(=O)NO
IC50 (Histone deacetylase 8 [8]): 0.117 µM

SMILES: CCCCCNC(=O)[C@H](CCC(=O)NO)NC(=O)Cc1ccccc1Br
IC50 (Jurkat E6.1 [2]): > 50 µM

SMILES: O=C1CN[C@@H](Cc2ccccc2)C(=O)N1
IC50 (Histone deacetylase 8 [1]): 0.0674 µM

The next lines start with results.

IC50 [3]: 2.4 µM
GI50 (Jurkat [5]): 2.8 µM
SMILES: O=C(NO)c1cccc(-c2cn(CSc3ccccc3)nn2)c1
GI50 (HH): 21 µM
GI50 (MT4): 22 µM
GI50 (HuT78): 32 µM

inhibition [6]: 71%
SMILES: CC(C)C[C@H](NC(=O)[C@@H](O)[C@H](N)Cc1ccccc1)C(=O)NCCOCCOCC(=O)Nc1cccc(C(=O)NO)c1

IC50 [3]: > 20 µM
SMILES: COc1ccc(/C=C/C(=O)NO)c(-c2ccc(-c3ccccc3)cc2)c1

IC50 (Histone deacetylase 8 [7]): 0.12 µM
SMILES: CC(C)C[C@H]1CC(=O)N[C@@H](C)C(=O)N[C@@H](CCCCCC(=O)NO)C(=O)N[C@@H](Cc2c[nH]c3ccccc23)C(=O)N1 (cyclo([Asu](NHOH)W[β3hL]A))

inhibition [6]: 64%
SMILES: CC(C)C[C@H](NC(=O)[C@@H](O)[C@H](N)Cc1ccccc1)C(=O)NCCOCCOCCNC(=O)c1cccc(C(=O)NO)c1

inhibition [6]: 90%
SMILES: CC(C)C[C@H](NC(=O)[C@@H](O)[C@H](N)Cc1ccccc1)C(=O)NCCCCCC(=O)Nc1ccc(NC(=O)CCCCCCC(=O)NO)cc1

IC50 [9]: 138 µM
IC50 (Histone deacetylase): > 10 µM
IC50 (Histone deacetylase 8 [10]): 2.89 µM
IC50 (Neutrophil collagenase): 206 µM
IC50 [11]: 6.4 µM
IC50 [12]: 4.83 µM
IC50 [13]: 56.6 µM
IC50 (Histone deacetylase 8 [14]): ≤ 10 µM
SMILES: O=C(O)CC[C@H](NC(=O)Cc1ccc(Br)cc1)C(=O)NCc1ccc([N+](=O)[O-])cc1
IC50 (U-937): ≤ 35 µM
IC50 (Jurkat E6.1 [15]): ≤ 35 µM
IC50 (MOLT-4): ≤ 35 µM
